According to article PMC5218480 (PLoS ONE, 2017):

System: MV-4-11 cells
Experiment: Gene expression microarray analysis (Affymetrix PrimeView) and GSEA
Assay type: cell-based, human
Design: RFU PODN (11730768_x_at) / Fold change /veh PODN (11730768_x_at) / RFU LINC00158 (11744669_a_at) / Fold change /veh LINC00158 (11744669_a_at) / RFU DUSP10 (11751237_a_at) / Fold change /veh DUSP10 (11751237_a_at) / RFU ID3 (11757404_x_at) / Fold change /veh ID3 (11757404_x_at) / RFU PLEKHG5 (11737974_s_at) / Fold change /veh PLEKHG5 (11737974_s_at) / RFU LRRC4B (11730491_at) / Fold change /veh LRRC4B (11730491_at) / RFU GIMAP4 (11747438_a_at) / Fold change /veh GIMAP4 (11747438_a_at) / RFU KRT8 (11758183_x_at) / Fold change /veh KRT8 (11758183_x_at) / RFU CNN1 (11734310_a_at) / Fold change /veh CNN1 (11734310_a_at) / RFU VPS37D (11726825_at) / Fold change /veh VPS37D (11726825_at) / RFU C10orf10 (11716522_x_at) / Fold change /veh C10orf10 (11716522_x_at) / RFU KIR2DL2 /// KIR2DL4 /// KIR2DL5A /// KIR2DL5B /// KIR2DS1 /// KIR2DS2 /// KIR2DS3 /// KIR2DS4 /// KIR3DL3 /// KIR3DL3 /// KIR3DS1 (11738374_at) / Fold change /veh KIR2DL2 /// KIR2DL4 /// KIR2DL5A /// KIR2DL5B /// KIR2DS1 /// KIR2DS2 /// KIR2DS3 /// KIR2DS4 /// KIR3DL3 /// KIR3DL3 /// KIR3DS1 (11738374_at) / RFU C1QL1 (11718748_at) / Fold change /veh C1QL1 (11718748_at) / RFU TMPRSS4 (11747572_a_at) / Fold change /veh TMPRSS4 (11747572_a_at) / RFU HAMP (11756126_x_at) / Fold change /veh HAMP (11756126_x_at) / RFU RNFT2 (11725882_a_at) / Fold change /veh RNFT2 (11725882_a_at) / RFU NR4A2 (11747474_a_at) / Fold change /veh NR4A2 (11747474_a_at) / RFU ABCC12 (11746883_a_at) / Fold change /veh ABCC12 (11746883_a_at) / RFU TMEM136 (11760407_x_at) / Fold change /veh TMEM136 (11760407_x_at) / RFU CLDN22 /// WWC2 (11732394_at) / Fold change /veh CLDN22 /// WWC2 (11732394_at) / RFU HLA-DPB1 (11760878_x_at) / Fold change /veh HLA-DPB1 (11760878_x_at) / RFU SPINT1 (11716480_a_at) / Fold change /veh SPINT1 (11716480_a_at) / RFU GAP43 (11754022_s_at) / Fold change /veh GAP43 (11754022_s_at) / RFU A4GNT (11735810_at) / Fold change /veh A4GNT (11735810_at) / RFU PRB3 (11715151_x_at) / Fold change /veh PRB3 (11715151_x_at) / RFU TUBB4B (11761932_at) / Fold change /veh TUBB4B (11761932_at) / RFU CAPN14 (11732068_a_at) / Fold change /veh CAPN14 (11732068_a_at) / RFU TMCC2 (11721928_a_at) / Fold change /veh TMCC2 (11721928_a_at) / RFU IRGQ (11745062_a_at) / Fold change /veh IRGQ (11745062_a_at) / RFU FAM174B (11720279_a_at) / Fold change /veh FAM174B (11720279_a_at) / RFU TMPRSS4 (11748680_a_at) / Fold change /veh TMPRSS4 (11748680_a_at) / RFU FAM212B (11763350_a_at) / Fold change /veh FAM212B (11763350_a_at) / RFU PLEKHG5 (11743358_a_at) / Fold change /veh PLEKHG5 (11743358_a_at) / RFU ZSCAN30 (11745921_a_at) / Fold change /veh ZSCAN30 (11745921_a_at) / RFU CMKLR1 (11741424_a_at) / Fold change /veh CMKLR1 (11741424_a_at) / RFU LOC101060620 /// MAPK8IP1 (11723275_at) / Fold change /veh LOC101060620 /// MAPK8IP1 (11723275_at) / RFU SPTSSB (11747773_x_at) / Fold change /veh SPTSSB (11747773_x_at) / RFU PRSS12 (11739890_at) / Fold change /veh PRSS12 (11739890_at) / RFU BIN1 (11741810_x_at) / Fold change /veh BIN1 (11741810_x_at) / RFU WNT11 (11732464_a_at) / Fold change /veh WNT11 (11732464_a_at) / RFU C10orf10 (11716521_a_at) / Fold change /veh C10orf10 (11716521_a_at) / RFU C5orf56 (11738089_at) / Fold change /veh C5orf56 (11738089_at) / RFU CYB561 (11721691_x_at) / Fold change /veh CYB561 (11721691_x_at) / RFU ANKRD19P (11752326_a_at) / Fold change /veh ANKRD19P (11752326_a_at) / RFU OR2T12 /// OR2T33 /// OR2T8 (11738714_s_at) / Fold change /veh OR2T12 /// OR2T33 /// OR2T8 (11738714_s_at) / RFU VCAN (11748164_a_at) / Fold change /veh VCAN (11748164_a_at) / RFU JSRP1 (11732532_at) / Fold change /veh JSRP1 (11732532_at) / RFU KRTAP10-11 (11738290_x_at) / Fold change /veh KRTAP10-11 (11738290_x_at) / RFU MYO3A (11730013_a_at) / Fold change /veh MYO3A (11730013_a_at) / RFU EBF3 (11725865_a_at) / Fold change /veh EBF3 (11725865_a_at) / RFU CAMK2N1 (11719241_x_at) / Fold change /veh CAMK2N1 (11719241_x_at) / RFU C5orf56 (11738088_a_at) / Fold change /veh C5orf56 (11738088_a_at) / RFU OLFML3 (11715873_a_at) / Fold change /veh OLFML3 (11715873_a_at) / RFU LOC100653217 /// NTM (11731650_a_at) / Fold change /veh LOC100653217 /// NTM (11731650_a_at) / RFU MAPK11 (11762145_a_at) / Fold change /veh MAPK11 (11762145_a_at) / RFU FIZ1 (11724087_x_at) / Fold change /veh FIZ1 (11724087_x_at) / RFU OASL (11726364_x_at) / Fold change /veh OASL (11726364_x_at) / RFU SOX15 (11748057_x_at) / Fold change /veh SOX15 (11748057_x_at) / RFU CD79A (11719716_a_at) / Fold change /veh CD79A (11719716_a_at) / RFU HIST1H1D (11736915_at) / Fold change /veh HIST1H1D (11736915_at) / RFU CASKIN2 (11723855_a_at) / Fold change /veh CASKIN2 (11723855_a_at) / RFU LOC730098 (11760151_x_at) / Fold change /veh LOC730098 (11760151_x_at) / RFU OR4N2 (11742367_at) / Fold change /veh OR4N2 (11742367_at) / RFU PRRT2 (11749266_a_at) / Fold change /veh PRRT2 (11749266_a_at) / RFU SNX32 (11753110_a_at) / Fold change /veh SNX32 (11753110_a_at) / RFU CDHR5 (11726645_a_at) / Fold change /veh CDHR5 (11726645_a_at) / RFU RCAN1 (11760418_a_at) / Fold change /veh RCAN1 (11760418_a_at) / RFU FAM167A (11723789_a_at) / Fold change /veh FAM167A (11723789_a_at) / RFU FAM26E (11764081_at) / Fold change /veh FAM26E (11764081_at) / RFU ISYNA1 (11749810_s_at) / Fold change /veh ISYNA1 (11749810_s_at) / RFU ACY1 (11761880_at) / Fold change /veh ACY1 (11761880_at) / RFU 11764098_at / Fold change /veh 11764098_at / RFU SAMD14 (11745864_x_at) / Fold change /veh SAMD14 (11745864_x_at) / RFU NPB (11741838_a_at) / Fold change /veh NPB (11741838_a_at) / RFU TMPRSS6 (11731388_a_at) / Fold change /veh TMPRSS6 (11731388_a_at) / RFU KRTAP10-2 (11738614_at) / Fold change /veh KRTAP10-2 (11738614_at) / RFU ARHGAP8 /// PRR5-ARHGAP8 (11727945_x_at) / Fold change /veh ARHGAP8 /// PRR5-ARHGAP8 (11727945_x_at) / RFU KRTAP5-7 /// NADSYN1 (11734609_at) / Fold change /veh KRTAP5-7 /// NADSYN1 (11734609_at) / RFU RASL12 (11751679_a_at) / Fold change /veh RASL12 (11751679_a_at) / RFU CDKN2B (11736163_a_at) / Fold change /veh CDKN2B (11736163_a_at) / RFU PRF1 (11729649_at) / Fold change /veh PRF1 (11729649_at) / RFU, ZNF638 /// ZNF638-IT1 / Fold change vs veh, ZNF638 /// ZNF638-IT1 / RFU, PANK3 / Fold change vs veh, PANK3 / RFU, SH3YL1 / Fold change vs veh, SH3YL1 / RFU, ZEB2 / Fold change vs veh, ZEB2 / RFU, NRIP1 / Fold change vs veh, NRIP1 / RFU, PTTG1IP / Fold change vs veh, PTTG1IP / RFU, CAPN2 / Fold change vs veh, CAPN2 / RFU, MED14 / Fold change vs veh, MED14 / RFU, SNORA58 / Fold change vs veh, SNORA58 / RFU, C1orf63 / Fold change vs veh, C1orf63 / RFU, LRRFIP1 / Fold change vs veh, LRRFIP1 / RFU, NDUFAF7 / Fold change vs veh, NDUFAF7 / RFU, SLC12A2 / Fold change vs veh, SLC12A2 / RFU, IBTK / Fold change vs veh, IBTK / RFU, ESF1 / Fold change vs veh, ESF1 / Fold change vs veh, TMEM50B / RFU, TAOK1 / Fold change vs veh, TAOK1 / RFU, ACBD3 / Fold change vs veh, ACBD3 / RFU, TMA16 / Fold change vs veh, TMA16 / RFU, RWDD3 / Fold change vs veh, RWDD3 / RFU, BCAT1 / Fold change vs veh, BCAT1 / RFU, EDEM3 / Fold change vs veh, EDEM3 / RFU, TMEM33 / Fold change vs veh, TMEM33 / RFU, WDR75 / Fold change vs veh, WDR75 / RFU, AHCTF1 / Fold change vs veh, AHCTF1 / RFU, TFRC / Fold change vs veh, TFRC / RFU, ZDHHC17 / Fold change vs veh, ZDHHC17 / RFU, NOM1 / Fold change vs veh, NOM1 / RFU, ARL8B / Fold change vs veh, ARL8B / RFU, ZBTB11 / Fold change vs veh, ZBTB11 / RFU, TAMM41 / Fold change vs veh, TAMM41 / RFU, KIAA1704 /// LOC100996395 / Fold change vs veh, KIAA1704 /// LOC100996395 / RFU, ING1 / Fold change vs veh, ING1 / RFU, TRMT61B / Fold change vs veh, TRMT61B / RFU, FUBP3 / Fold change vs veh, FUBP3 / RFU, TP53 / Fold change vs veh, TP53 / RFU, TNKS2 / Fold change vs veh, TNKS2 / RFU, ZFP14 / Fold change vs veh, ZFP14 / RFU, ACTR2 / Fold change vs veh, ACTR2 / RFU, PPP3R1 / Fold change vs veh, PPP3R1 / RFU, PIK3R1 / Fold change vs veh, PIK3R1 / RFU, HNRNPA1 / Fold change vs veh, HNRNPA1 / RFU, RNF170 / Fold change vs veh, RNF170 / RFU, ZNF28 / Fold change vs veh, ZNF28 / RFU, RNGTT / Fold change vs veh, RNGTT / RFU, OGT / Fold change vs veh, OGT / RFU, BRD1 / Fold change vs veh, BRD1 / RFU, MARS / Fold change vs veh, MARS / RFU, ZNF655 / Fold change vs veh, ZNF655 / RFU, FAHD1 / Fold change vs veh, FAHD1 / RFU, BDP1 / Fold change vs veh, BDP1 / RFU, LRRCC1 / Fold change vs veh, LRRCC1 / RFU, ARID1A / Fold change vs veh, ARID1A / RFU, ZNF146 / Fold change vs veh, ZNF146 / RFU, ZNF330 / Fold change vs veh, ZNF330 / RFU, GPN3 / Fold change vs veh, GPN3 / RFU, C9orf123 / Fold change vs veh, C9orf123 / RFU, N4BP2L2 / Fold change vs veh, N4BP2L2 / RFU, ARFIP1 / Fold change vs veh, ARFIP1 / RFU, FAM179B / Fold change vs veh, FAM179B / RFU, BCL10 / Fold change vs veh, BCL10 / RFU, UHRF1BP1L / Fold change vs veh, UHRF1BP1L / RFU, BET1 / Fold change vs veh, BET1 / RFU, CNOT2 / Fold change vs veh, CNOT2 / RFU, ZNF268 / Fold change vs veh, ZNF268 / Fold change vs veh, ZNF507 / RFU, DGCR2 / Fold change vs veh, DGCR2 / RFU, WDSUB1 / Fold change vs veh, WDSUB1 / Fold change vs veh, HSP90B1 /// MIR3652 / RFU, ADSS / Fold change vs veh, ADSS / RFU, GK / Fold change vs veh, GK / RFU, ZNF148 / Fold change vs veh, ZNF148 / RFU, TAF9 / Fold change vs veh, TAF9 / RFU, SLC1A5 / Fold change vs veh, SLC1A5 / RFU, SLMO2 / Fold change vs veh, SLMO2 / RFU, ABCC4 / Fold change vs veh, ABCC4 / RFU, LOC101060439 /// RAP1B / Fold change vs veh, LOC101060439 /// RAP1B / RFU, RFX7 / Fold change vs veh, RFX7 / RFU, GTPBP10 / Fold change vs veh, GTPBP10 / RFU, CNEP1R1 / Fold change vs veh, CNEP1R1 / RFU, BIVM-ERCC5 /// ERCC5 / Fold change vs veh, BIVM-ERCC5 /// ERCC5 / RFU, ILF3 / Fold change vs veh, ILF3 / RFU 11762660_at / Fold change /veh 11762660_at / RFU VCAN (11757783_s_at) / Fold change /veh VCAN (11757783_s_at) / RFU DDX43 (11728927_at) / Fold change /veh DDX43 (11728927_at) / RFU KRT8 (11758188_x_at) / Fold change /veh KRT8 (11758188_x_at) / RFU NKD1 (11759106_at) / Fold change /veh NKD1 (11759106_at) / RFU SRD5A1 (11742802_a_at) / Fold change /veh SRD5A1 (11742802_a_at) / RFU TPSAB1 /// TPSB2 (11721975_s_at) / Fold change /veh TPSAB1 /// TPSB2 (11721975_s_at) / RFU GSTM3 (11746129_a_at) / Fold change /veh GSTM3 (11746129_a_at) / RFU IL23R (11737362_x_at) / Fold change /veh IL23R (11737362_x_at) / RFU TMEM51 (11727254_a_at) / Fold change /veh TMEM51 (11727254_a_at) / RFU PIWIL2 (11732686_x_at) / Fold change /veh PIWIL2 (11732686_x_at) / RFU ORM1 (11744905_x_at) / Fold change /veh ORM1 (11744905_x_at) / RFU CCDC152 (11743942_at) / Fold change /veh CCDC152 (11743942_at) / RFU ECM1 (11717891_a_at) / Fold change /veh ECM1 (11717891_a_at) / RFU IL23R (11748794_a_at) / Fold change /veh IL23R (11748794_a_at) / RFU TNFAIP8L3 (11732012_x_at) / Fold change /veh TNFAIP8L3 (11732012_x_at) / RFU MBOAT4 (11741988_at) / Fold change /veh MBOAT4 (11741988_at) / RFU 11764193_at / Fold change /veh 11764193_at / RFU TMEM53 (11763286_at) / Fold change /veh TMEM53 (11763286_at) / RFU MAGEB2 (11727129_at) / Fold change /veh MAGEB2 (11727129_at) / RFU TMEM200A (11744735_a_at) / Fold change /veh TMEM200A (11744735_a_at) / RFU CCDC152 (11751479_a_at) / Fold change /veh CCDC152 (11751479_a_at) / RFU FAM211A (11726209_a_at) / Fold change /veh FAM211A (11726209_a_at) / RFU RGS16 (11746705_a_at) / Fold change /veh RGS16 (11746705_a_at) / RFU VCAN (11755009_s_at) / Fold change /veh VCAN (11755009_s_at) / RFU RHOB (11743442_s_at) / Fold change /veh RHOB (11743442_s_at) / RFU RGS16 (11720943_a_at) / Fold change /veh RGS16 (11720943_a_at) / RFU RGS16 (11720944_at) / Fold change /veh RGS16 (11720944_at) / RFU, VPS4B / Fold change vs veh, VPS4B / RFU, CREB1 / Fold change vs veh, CREB1 / RFU, DNAJC13 / Fold change vs veh, DNAJC13 / RFU, GNAQ / Fold change vs veh, GNAQ / RFU, CDK5R1 / Fold change vs veh, CDK5R1 / RFU, ZRANB3 / Fold change vs veh, ZRANB3 / RFU, CUL4A / Fold change vs veh, CUL4A / RFU, CCNY / Fold change vs veh, CCNY / RFU, UFL1 / Fold change vs veh, UFL1 / RFU, COG3 / Fold change vs veh, COG3 / RFU, DIAPH2 / Fold change vs veh, DIAPH2 / RFU, SKA2 / Fold change vs veh, SKA2 / RFU, AFF3 / Fold change vs veh, AFF3 / RFU, LMF1 / Fold change vs veh, LMF1 / RFU, IPO11 / Fold change vs veh, IPO11 / RFU, DFFB / Fold change vs veh, DFFB / RFU, FOXP1 / Fold change vs veh, FOXP1 / RFU, CARD8 / Fold change vs veh, CARD8 / RFU, STRN3 / Fold change vs veh, STRN3 / RFU, ADK / Fold change vs veh, ADK / RFU, RASSF2 / Fold change vs veh, RASSF2 / RFU, WIPF1 / Fold change vs veh, WIPF1 / RFU, LARP1B / Fold change vs veh, LARP1B / RFU, RASA1 / Fold change vs veh, RASA1 / RFU, RB1 / Fold change vs veh, RB1 / RFU, PPFIA1 / Fold change vs veh, PPFIA1 / RFU, MAT2A / Fold change vs veh, MAT2A / RFU, CCT5 / Fold change vs veh, CCT5 / RFU, WDR92 / Fold change vs veh, WDR92 / RFU, CUX1 / Fold change vs veh, CUX1 / RFU, TTC7A / Fold change vs veh, TTC7A / RFU, TMEM135 / Fold change vs veh, TMEM135 / RFU, DEPTOR / Fold change vs veh, DEPTOR / RFU, CPM / Fold change vs veh, CPM / RFU, DNAJB6 / Fold change vs veh, DNAJB6 / RFU, CACNA2D3 / Fold change vs veh, CACNA2D3 / RFU, DTX4 / Fold change vs veh, DTX4 / RFU, TFCP2 / Fold change vs veh, TFCP2 / RFU, GMCL1 /// GMCL1P1 / Fold change vs veh, GMCL1 /// GMCL1P1 / RFU, AEBP2 / Fold change vs veh, AEBP2 / RFU, SNHG1 /// SNORD22 /// SNORD25 /// SNORD26 /// SNORD27 /// SNORD28 /// SNORD29 /// SNORD31 / Fold change vs veh, SNHG1 /// SNORD22 /// SNORD25 /// SNORD26 /// SNORD27 /// SNORD28 /// SNORD29 /// SNORD31 / Fold change (Aza/veh), C12orf56 (ProbeSet 11735607_a_at) / Fold change (ACY-1035/veh), C12orf56 (ProbeSet 11735607_a_at) / Fold change (Aza/veh), FGFR1OP (ProbeSet 11751329_s_at) / Fold change (ACY-1035/veh), FGFR1OP (ProbeSet 11751329_s_at) / Fold change (Aza/veh), VPS36 (ProbeSet 11739960_a_at) / Fold change (ACY-1035/veh), VPS36 (ProbeSet 11739960_a_at) / RFU SYPL1 (11715823_x_at) / Fold change /veh SYPL1 (11715823_x_at) / RFU IGFBP7 (11715501_s_at) / Fold change /veh IGFBP7 (11715501_s_at) / RFU REEP3 (11722064_at) / Fold change /veh REEP3 (11722064_at) / RFU IGLL1 (11728026_x_at) / Fold change /veh IGLL1 (11728026_x_at): dose or concentration left out as unconfirmed
Conditions: ProbeSet 11728443_a_at; LIST B

With `Nc1ncn([C@@H]2O[C@H](CO)[C@@H](O)[C@H]2O)c(=O)n1` [azacitidine] the “RFU, TAOK1” value was 59.03 RFU.
